experiment: log P determination by LC-MS in the acidic range; format: physicochemical; details: LC-MS in the acidic range
Source text: The LC-MS determination in the acidic range is effected at pH 2.7 using 0.1% aqueous formic acid and acetonitrile (contains 0.1% formic acid) as eluents, linear gradient from 10% acetonitrile to 95% acetonitrile. Alternatively, the determination is effected in the acidic range at pH 2.3 using 0.1% aqueous phosphoric acid and acetonitrile as eluents; linear gradient from 10% acetonitrile to 95% acetonitrile.

log P (acid)	SMILES
0.87	Cc1cc(NC(=O)c2cncc(F)c2)nn1CC(=O)O [Compound I-1-114]
2.59	Cc1cc(NC(=O)c2cccnc2)nn1-c1ccc(Cl)c(Cl)c1 [Compound I-1-206]
1.13	Cn1nc(NC(=O)c2cccnc2)c(Br)c1OC(F)F [Compound I-1-47]
1.17	COc1nn(Cn2nc(NC(=O)c3ccnnc3)cc2C)c(=O)n1C1CC1 [Compound I-1-152]
1.1	Cc1cnn(Cn2nc(NC(=O)c3ccnnc3)cc2C)c1 [Compound I-1-256]
1.73	Cc1ccc(C(=O)Nc2cc(C)n(Cc3ccccc3F)n2)cn1 [Compound I-1-102]
1.2	Cc1cc(NC(=O)c2ccnnc2)nn1CC(F)(F)F [Compound I-1-250]
0.06	Cn1nc(NC(=O)c2cccnc2)c(C#N)c1[S+](C)[O-] (stereo not shown) [Compound I-1-141]
3.23	Cc1cc(NC(=O)c2cnc(Cl)c(Cl)c2)nn1Cc1ccc(F)cc1 [Compound I-1-97]
2.48	Cc1cc(NC(=O)c2ccc(Cl)nc2)nn1Cc1ccccc1 [Compound I-1-98]
1.16	O=C(Nc1ccn(-c2nccs2)n1)c1cccnc1 [Compound I-1-273]
1.33	Cc1cc(NC(=O)c2ccnnc2)nn1Cc1ncccc1Cl [Compound I-1-254]
1.53	Cc1cc(C)nc(-n2nc(NC(=O)c3ccnnc3)cc2C)n1 [Compound I-1-248]
1.19	Cn1nc(NC(=O)c2cccnc2)c(Cl)c1OC(F)F [Compound I-1-275]
2.33	Cc1nn(-c2ccccc2)nc1Cn1nc(NC(=O)c2cccnc2)cc1C [Compound I-1-303]
1.07	CCCNS(=O)(=O)n1nc(NC(=O)c2cccnc2)cc1C [Compound I-1-258]
2.51	COc1ccc(C(=O)Nc2cc(C)n(Cc3cccc(F)c3)n2)cn1 [Compound I-1-94]
1.92	Cc1cc(NC(=O)c2cccnc2)nn1C(=O)c1cccc(Cl)c1 [Compound I-1-127]
1.73	Cc1cc(NC(=O)c2ccnnc2)nn1Cn1ccc(C(F)(F)F)n1 [Compound I-1-255]
1.67	Cn1nc(NC(=O)c2cncc(F)c2)c(Br)c1OC(F)F [Compound I-1-113]
3.28	Cc1cc(NC(=O)c2cnc(Cl)c(Cl)c2)nn1Cc1ccccc1F [Compound I-1-103]
1.6	COc1ccc(-n2ccc(NC(=O)c3cccnc3)n2)cc1 [Compound I-1-271]
2.89	Cc1cc(F)c(Cn2nc(NC(=O)c3cccnc3)cc2C)cc1SCC(F)(F)F [Compound I-1-337]
0.88	Cc1ccnc(Cn2nc(NC(=O)c3ccnnc3)cc2C)n1 [Compound I-1-253]
2.47	COc1ccc(C(=O)Nc2cc(C)n(Cc3ccc(F)cc3)n2)cn1 [Compound I-1-110]
1.14	Cc1cc(C)nc(Cn2nc(NC(=O)c3ccnnc3)cc2C)n1 [Compound I-1-251]

same assay, conditions: Table 2, compounds of the formula (I-2); acidic range pH 2.7 or pH 2.3

log P (acid)	SMILES
0.29	CCCn1cnc(NC(=O)c2cccnc2)n1 [Compound I-2-21]
1.39	O=C(Nc1ncn(Cc2c(Cl)cccc2Cl)n1)c1cccnc1 [Compound I-2-8]
0.98	O=C(Nc1ncn(-c2ccccc2)n1)c1cccnc1 [Compound I-2-5]
0.67	O=C(Nc1ncn(-c2ncccc2Br)n1)c1cccnc1 [Compound I-2-15]
0.47	CN(C)C(=O)n1cnc(NC(=O)c2cccnc2)n1 [Compound I-2-9]
0.70	COc1ccnc(-n2cnc(NC(=O)c3cccnc3)n2)n1 [Compound I-2-11]
1.36	O=C(Nc1ncn(Cc2ccc(Cl)cc2)n1)c1cccnc1 [Compound I-2-13]
1.11	COc1cc(OC)nc(-n2cnc(NC(=O)c3cccnc3)n2)n1 [Compound I-2-24]

same assay, conditions: Table 3; HPLC on reversed-phase column (C 18), 55° C., acidic range (pH 2.7 or pH 2.3)

log P (acid)	SMILES
1.74	Cc1nn(-c2ncc(Cl)cc2Cl)nc1NC(=O)c1cccnc1 [Compound I-3-17]
2.93	O=C(Nc1nn(-c2ccc(Cl)cc2)nc1C(F)(F)F)c1cccnc1 [Compound I-3-20]
2.58	Cc1nn(-c2cccc(C(F)(F)F)c2)nc1NC(=O)c1cccnc1 [Compound I-3-18]
2.09	O=C(Nc1nn(-c2ccccc2)nc1Br)c1cccnc1 [Compound I-3-3]
1.67	O=C(Nc1cnn(-c2c(F)cccc2F)n1)c1cccnc1 [Compound I-3-24]

same assay, conditions: Table 4; HPLC on reversed-phase column (C 18), 55° C., acidic range (pH 2.7 or pH 2.3)

log P (acid)	SMILES
1.71	O=C(Cn1nnc(NC(=O)c2cccnc2)n1)NCc1cccc2ccccc12 [Compound I-4-7]
0.97	CCCCNC(=O)Cn1nnc(NC(=O)c2cccnc2)n1 [Compound I-4-11]
0.71	CCOC(=O)Cn1nnc(NC(=O)c2cccnc2)n1 [Compound I-4-5]
0.76	CCCn1nnc(NC(=O)c2cccnc2)n1 [Compound I-4-9]
1.38	O=C(Nc1nnn(Cc2ccccc2)n1)c1cccnc1 [Compound I-4-10]
1.35	COc1cc(OC)nc(-n2nnc(NC(=O)c3cccnc3)n2)n1 [Compound I-4-4]

same assay, conditions: amines of the formula (II-1); acidic range pH 2.7 (0.1% formic acid/acetonitrile) or pH 2.3 (0.1% phosphoric acid/acetonitrile)

log P (acid)	SMILES
0.57	CC(C)=NOCn1nc(N)cc1C [II-1-52]
<−0.23	Cc1cc(N)nn1CN1CCCNC1=O [II-1-57]
1.26	Cc1cc(N)nn1Cn1nccc1C(F)(F)F [II-1-41]
0.6	Cc1cc(N)nn1Cc1ncccc1Cl [II-1-24]
0.44	Cc1cc(N)nn1CN1CCS/C1=N/C#N [II-1-44]
0.73	CC(C)=CCn1nc(N)cc1C [II-1-59]
0.81	COc1cc(OC)nc(Cn2nc(N)cc2C)n1 [II-1-12]
0.13	Cc1cc(N)nn1CCCl [II-1-13]
0.46	C#CCn1nc(N)cc1CC [II-1-17]
0.56	Nc1ccn(Cc2ccc(Cl)nc2)n1 [II-1-3]
−0.15	C#CCn1nc(N)cc1C [II-1-20]
0.77	Cc1cc(N)nn1Cc1ccc(Cl)nc1 [II-1-5]
<−0.23	Cc1cc(N)nn1Cc1ncnn1C [II-1-63]
0.19	Cc1cc(N)nn1Cc1nccs1 [II-1-10]
0.22	Cn1nc(N)cc1C(F)F [II-1-40]
0.55	Cc1ccn(Cn2nc(N)cc2C)n1 [II-1-38]
0.14	CSCn1nc(N)cc1C [II-1-60]
1.36	Nc1cc(C2CC2)n(Cc2ccccc2)n1 [II-1-2]
0.43	Cc1cc(N)nn1Cn1nc(C)n(C2CC2)c1=O [II-1-49]
0.79	Cc1cc(N)nn1-c1ncccc1Cl [II-1-31]
0.02	Cc1cc(N)nn1C(C)C#N (stereo not shown) [II-1-64]
−0.23	Cc1cc(N)nn1Cn1cncn1 [II-1-43]
1.21	Nc1cc(C2CC2)n(Cc2ccc(Cl)nc2)n1 [II-1-1]
<−0.23	Cc1cc(N)nn1Cn1c(C)nn(C)c1=O [II-1-54]
1.06	Nc1cc(C(F)(F)F)n(Cc2ncccn2)n1 [II-1-35]
0.15	CCOCn1nc(N)cc1C [II-1-33]
<−0.23	Cc1cc(N)nn1Cc1cccnc1 [II-1-28]

same assay, conditions: pH 2.7, LC-MS in the acidic range; read-out: log P (acid)

chromatographic logP	SMILES
2.64	O=C(Nc1ccn(Cc2ncc(C(F)(F)F)cc2Cl)n1)c1ccc(Cl)nc1 [Compound I-1-118, 6-Chloro-N-(1-{[3-chloro-5-(trifluoromethyl)pyridin-2-yl]methyl}-1H-pyrazol-3-yl)nicotinamide]
1.56	Cn1nc(NC(=O)c2cncc(F)c2)cc1OC(F)F [Compound I-1-112, N-[5-(Difluoromethoxy)-1-methyl-1H-pyrazol-3-yl]-5-fluoronicotinamide]

same assay, conditions: pH 2.7, amines of the formula (II-1); acidic range pH 2.7 (0.1% formic acid/acetonitrile) or pH 2.3 (0.1% phosphoric acid/acetonitrile); read-out: log P (acid)

chromatographic logP	SMILES
0.63	CCSCn1nc(N)cc1C [II-1-61, 1-[(Ethylsulphanyl)methyl]-5-methyl-1H-pyrazole-3-amine]
1.36	Nc1ccn(Cc2ncc(C(F)(F)F)cc2Cl)n1 [II-1-8, 1-{[3-Chloro-5-(trifluoromethyl)pyridin-2-yl]methyl}-1H-pyrazole-3-amine]
0.56	Nc1cc(Br)n(Cc2ncccn2)n1 [II-1-30, 5-Bromo-1-(pyrimidin-2-ylmethyl)-1H-pyrazole-3-amine]

same assay, conditions: pH 2.7, values given in the synthesis examples and NMR lists; read-out: HPLC-MS: log P

chromatographic logP	SMILES
0.63	CCSCn1nc(N)cc1C [II-1-61, 1-[(Ethylsulphanyl)methyl]-5-methyl-1H-pyrazole-3-amine]
2.21	CCSCn1nc([N+](=O)[O-])cc1C [1-[(Ethylsulphanyl)methyl]-5-methyl-3-nitro-1H-pyrazole]
1.34	Cc1c[nH]nc1N1C(=O)c2ccccc2C1=O [2-(4-Methyl-1H-pyrazol-3-yl)-1H-isoindole-1,3(2H)-dione]
2.67	O=[N+]([O-])c1ccn(Cc2ncc(C(F)(F)F)cc2Cl)n1 [3-Chloro-2-[(3-nitro-1H-pyrazol-1-yl)methyl]-5-(trifluoromethyl)pyridine]
2.64	O=C(Nc1ccn(Cc2ncc(C(F)(F)F)cc2Cl)n1)c1ccc(Cl)nc1 [Compound I-1-118, 6-Chloro-N-(1-{[3-chloro-5-(trifluoromethyl)pyridin-2-yl]methyl}-1H-pyrazol-3-yl)nicotinamide]
1.41	Cc1cc([N+](=O)[O-])nn1-c1ncccn1 [2-(5-Methyl-3-nitro-1H-pyrazol-1-yl)pyrimidine]
1.36	Nc1ccn(Cc2ncc(C(F)(F)F)cc2Cl)n1 [II-1-8, 1-{[3-Chloro-5-(trifluoromethyl)pyridin-2-yl]methyl}-1H-pyrazole-3-amine]
0.56	Nc1cc(Br)n(Cc2ncccn2)n1 [II-1-30, 5-Bromo-1-(pyrimidin-2-ylmethyl)-1H-pyrazole-3-amine]
-0.22	Cc1cn(Cc2ncccn2)nc1N [4-Methyl-1-(pyrimidin-2-ylmethyl)-1H-pyrazole-3-amine]
1.83	O=C1c2ccccc2C(=O)N1c1cc(Br)[nH]n1 [2-(5-Bromo-1H-pyrazol-3-yl)-1H-isoindole-1,3(2H)-dione]
1.56	Cn1nc(NC(=O)c2cncc(F)c2)cc1OC(F)F [Compound I-1-112, N-[5-(Difluoromethoxy)-1-methyl-1H-pyrazol-3-yl]-5-fluoronicotinamide]

— US20160106102A1, “KNOWN AND NEW HETEROCYCLIC COMPOUNDS AS PEST CONTROL AGENTS” (BAYER CROPSCIENCE AKTIENGESELLSCHAFT, priority 2013, published 2016)
